Converted amounts (≈) assume the structure as drawn.
What was measured:
M. smegmatis = M. smegmatis loss of viability (viable colony counts); assay type: cell-based
[1] = tested on: M. smegmatis mc2 155/pTA-M+; assay: microbe, parasite or virus in culture; assay type: cell-based; conditions: Mycolicibacterium smegmatis, MC2155, read-out: MIC, M. smegmatis mc2 155/pTA-M+

Compound | Time course of loss of viable colony counts, MtbTopI overexpression (M. smegmatis) | MIC [1]
CCCC[C@@H](CN[C@H](CN)CCCCNC)NCc1cccc2ccccc12 [Compound 2471-12, (S)—N6-methyl-N2-((S)-2-(naphthalen-1-ylmethylamino)hexyl)hexane-1,2,6-triamine] | reduction of cell killing | 50 µM (≈ 19.2 µg/mL)
CCCC[C@@H](CN[C@@H](CN)CCCCNC)NCc1cccc2ccccc12 [Compound 2471-36] | – | 50 µM (≈ 19.2 µg/mL)
